Assay results taken from ChEMBL document CHEMBL4308908, “Lamellarin-inspired potent topoisomerase I inhibitors with the unprecedented benzo[g][1]benzopyrano[4,3-b]indol-6(13H)-one scaffold” (Bioorg Med Chem, 2019).
Activity calls are given as the source filed them. The calls are words filed in the database; no cut-off is given here.

Assays:
[1] = target: T1, DNA topoisomerase I (Bos taurus) (UniProt F1MN93); assay: Inhibition of calf thymus DNA topoisomerase 1 assessed as reduction in enzyme-mediated relaxation of supercoiled pBR322 plasmid DNA at 10 uM after 30 mins by agarose gel electrophoresis
T1 sequence (whole entry): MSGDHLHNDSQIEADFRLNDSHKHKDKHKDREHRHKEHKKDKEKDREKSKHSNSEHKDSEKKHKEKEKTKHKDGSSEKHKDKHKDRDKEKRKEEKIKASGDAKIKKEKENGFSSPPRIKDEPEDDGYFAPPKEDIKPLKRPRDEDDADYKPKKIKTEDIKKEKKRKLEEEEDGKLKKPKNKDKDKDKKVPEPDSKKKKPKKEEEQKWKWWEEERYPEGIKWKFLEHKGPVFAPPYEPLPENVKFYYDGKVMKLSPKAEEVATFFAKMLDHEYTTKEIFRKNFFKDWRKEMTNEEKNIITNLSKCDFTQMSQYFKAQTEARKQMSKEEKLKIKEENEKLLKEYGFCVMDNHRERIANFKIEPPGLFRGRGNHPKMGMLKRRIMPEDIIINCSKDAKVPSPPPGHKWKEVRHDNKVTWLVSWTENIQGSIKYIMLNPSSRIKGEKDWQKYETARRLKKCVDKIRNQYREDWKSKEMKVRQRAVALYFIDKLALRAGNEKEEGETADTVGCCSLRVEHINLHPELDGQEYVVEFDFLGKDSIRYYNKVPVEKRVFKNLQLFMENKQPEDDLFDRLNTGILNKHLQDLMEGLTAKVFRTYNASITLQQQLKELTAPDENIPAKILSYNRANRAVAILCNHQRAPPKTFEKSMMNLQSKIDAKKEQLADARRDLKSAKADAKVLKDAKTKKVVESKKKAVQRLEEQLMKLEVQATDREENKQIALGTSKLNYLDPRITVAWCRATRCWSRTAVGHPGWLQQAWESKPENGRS

[2] = target: T1, DNA topoisomerase I (Bos taurus); assay: Inhibition of calf thymus DNA topoisomerase 1 assessed as reduction in enzyme-mediated relaxation of supercoiled pBR322 plasmid DNA at 10 uM after 30 mins by ethidium bromide staining-based agarose gel electrophoresis
[3] = Antiproliferative activity against human BSY1 cells after 48 hrs by SRB assay; assay type: functional; settings: BSY-1, 48 h
[4] = Antiproliferative activity against human HBC5 cells after 48 hrs by SRB assay; assay type: functional; settings: HBC5, 48 h
MCF7 = assay: Antiproliferative activity against human MCF7 cells after 48 hrs by SRB assay; assay type: functional; settings: MCF7, 48 h
U-251 = assay: Antiproliferative activity against human U251 cells after 48 hrs by SRB assay; assay type: functional; settings: U-251, 48 h
SF-539 = assay: Antiproliferative activity against human SF539 cells after 48 hrs by SRB assay; assay type: functional; settings: SF-539, 48 h
SNB-75 = assay: Antiproliferative activity against human SNB75 cells after 48 hrs by SRB assay; assay type: functional; settings: SNB-75, 48 h
SNB-78 = assay: Antiproliferative activity against human SNB78 cells after 48 hrs by SRB assay; assay type: functional; settings: SNB-78, 48 h
HCC 2998 = assay: Antiproliferative activity against human HCC2998 cells after 48 hrs by SRB assay; assay type: functional; settings: HCC 2998, 48 h
KM12 = assay: Antiproliferative activity against human KM12 cells after 48 hrs by SRB assay; assay type: functional; settings: KM12, 48 h
HT-29 = assay: Antiproliferative activity against human HT-29 cells after 48 hrs by SRB assay; assay type: functional; settings: HT-29, 48 h
HCT-15 = assay: Antiproliferative activity against human HCT15 cells after 48 hrs by SRB assay; assay type: functional; settings: HCT-15, 48 h
NCI-H23 = assay: Antiproliferative activity against human NCI-H23 cells after 48 hrs by SRB assay; assay type: functional; settings: NCI-H23, 48 h
NCI-H226 = assay: Antiproliferative activity against human NCI-H226 cells after 48 hrs by SRB assay; assay type: functional; settings: NCI-H226, 48 h
NCI-H460 = assay: Antiproliferative activity against human NCI-H460 cells after 48 hrs by SRB assay; assay type: functional; settings: NCI-H460, 48 h
A549 = assay: Antiproliferative activity against human A549 cells after 48 hrs by SRB assay; assay type: functional; settings: A549, 48 h
DMS-273 = assay: Antiproliferative activity against human DMS273 cells after 48 hrs by SRB assay; assay type: functional; settings: DMS-273, 48 h
DMS-114 = assay: Antiproliferative activity against human DMS114 cells after 48 hrs by SRB assay; assay type: functional; settings: DMS-114, 48 h
LOX IMVI = assay: Antiproliferative activity against human LOXIMVI cells after 48 hrs by SRB assay; assay type: functional
OVCAR-3 = assay: Antiproliferative activity against human OVCAR3 cells after 48 hrs by SRB assay; assay type: functional; settings: OVCAR-3, 48 h
OVCAR-4 = assay: Antiproliferative activity against human OVCAR4 cells after 48 hrs by SRB assay; assay type: functional; settings: OVCAR-4, 48 h
OVCAR-5 = assay: Antiproliferative activity against human OVCAR5 cells after 48 hrs by SRB assay; assay type: functional; settings: OVCAR-5, 48 h
SK-OV-3 = assay: Antiproliferative activity against human SKOV3 cells after 48 hrs by SRB assay; assay type: functional; settings: SK-OV-3, 48 h
RXF 631 = assay: Antiproliferative activity against human RXF631L cells after 48 hrs by SRB assay; assay type: functional; settings: RXF 631, 48 h
ACHN = assay: Antiproliferative activity against human ACHN cells after 48 hrs by SRB assay; assay type: functional
St-4 = assay: Antiproliferative activity against human St-4 cells after 48 hrs by SRB assay; assay type: functional; settings: St-4, 48 h
MKN-7 = assay: Antiproliferative activity against human MKN7 cells after 48 hrs by SRB assay; assay type: functional; settings: MKN-7, 48 h
MKN-28 = assay: Antiproliferative activity against human MKN28 cells after 48 hrs by SRB assay; assay type: functional; settings: MKN-28, 48 h
MKN-45 = assay: Antiproliferative activity against human MKN45 cells after 48 hrs by SRB assay; assay type: functional; settings: MKN-45, 48 h
MKN-74 = assay: Antiproliferative activity against human MKN74 cells after 48 hrs by SRB assay; assay type: functional; settings: MKN-74, 48 h
DU-145 = assay: Antiproliferative activity against human DU145 cells after 48 hrs by SRB assay; assay type: functional; settings: DU-145, 48 h
PC-3 = assay: Antiproliferative activity against human PC3 cells after 48 hrs by SRB assay; assay type: functional; settings: PC-3, 48 h
[5] = Toxicity in mouse Colon 26 cells implanted BALB/c mouse assessed as induction of body weight loss at 50 mg/kg, iv administered every 2 days for 7 times starting 1 day after tumor implantation and measured daily until day 20; assay type: organism-based; settings: in vivo

inhibition [1]: Active
inhibition [2]: Active
GI50 (MCF7; read-out: GI50): 6.1 nM
GI50 (MCF7; read-out: pGI50 (converted)): 6.17 nM
GI50 (U-251; read-out: GI50): 3.4 nM
GI50 (U-251; read-out: pGI50 (converted)): 3.39 nM
GI50 (HCC 2998): 91.2 nM
GI50 (HT-29): 955 nM
GI50 (HCT-15): 58.9 nM
GI50 (NCI-H23): 4.9 nM
GI50 (NCI-H226): 89.1 nM
GI50 (NCI-H460): 4.37 nM
GI50 (A549): 52.5 nM
GI50 (OVCAR-3): 56.2 nM
GI50 (OVCAR-4): 36.3 nM
GI50 (OVCAR-5): 45.7 nM
GI50 (SK-OV-3; read-out: GI50): 20 nM
GI50 (SK-OV-3; read-out: pGI50 (converted)): 19.9 nM
GI50 (ACHN; read-out: GI50): 2.9 nM
GI50 (ACHN; read-out: pGI50 (converted)): 2.88 nM
GI50 (MKN-7): 52.5 nM
GI50 (MKN-28; read-out: GI50): 41 nM
GI50 (MKN-28; read-out: pGI50 (converted)): 40.7 nM
GI50 (MKN-45): 105 nM
GI50 (MKN-74): 75.9 nM
GI50 (DU-145; read-out: GI50): 3.2 nM
GI50 (DU-145; read-out: pGI50 (converted)): 3.16 nM
GI50 (PC-3): 70.8 nM
Structure (SMILES): COc1cc2c(ccc3c4c(=O)oc5cc(OC(=O)[C@@H](N)C(C)C)c(OC)cc5c4n(C)c23)cc1OC(=O)[C@@H](N)C(C)C.O=C(O)C(F)(F)F.O=C(O)C(F)(F)F
GI50 [3]: 38 nM
GI50 [4]: 138 nM
GI50 (SF-539): 4.17 nM
GI50 (SNB-75): 8.32 nM
GI50 (SNB-78): 282 nM
GI50 (KM12): 57.5 nM
GI50 (DMS-273): 4.27 nM
GI50 (DMS-114): 4.37 nM
GI50 (LOX IMVI; read-out: GI50): 2.5 nM
GI50 (LOX IMVI; read-out: pGI50 (converted)): 2.51 nM
GI50 (RXF 631): 1000 nM
GI50 (St-4): 1000 nM
Activity [5]: Non-Toxic
